# Literature values, collected in patent US4834966A, “Pharmaceutical composition with analgesic activity” (priority 1986, dated 1989).
# Key:
# [1] = background statement
# [2] = tested on: gastrointestinal and oral mucosa; conditions: background statement
smiles,measurement,setting,value
CC(C)Cc1ccc(C(C)C(=O)[O-])cc1.[Na+] (centres unmarked) [Ibuprofen sodium salt],solubility in water,[1],good solubility in water
same,gastrointestinal effect of solution pH,[2],gives solutions having a pH which produces gastrointestinal damages
